Measurements: patent publication US20100015249A1, “Antitumor agent containing 6'-amidino-2'-naphthyl 4-guanidinobenzoate or salt thereof” (priority 2005, published 2010)

Columns and labels:
caspase 8 = assay: Western blot of caspase 8 activation; type: cell-based, human
Description: The present inventors examined whether apoptosis signaling cascade is triggered with the elevation of TNFRI expression induced by FUT treatment, using caspase 8 as an indicator. Cytoplasmic fraction was prepared from the human pancreas cancer cell line MDAPanc-28 treated with various concentrations of FUT for 24 hours. Western blot was performed and subjected to the detection with anti-caspase 8 antibody (Santa Cruz Biotechnology) (FIG. 6-a). Western blot was performed to examine temporal changes in the expression of caspase 8, p-FADD, Bid and jBid under a constant concentration of FUT (80 μg/ml) at short intervals from 0 to 24 hours of treatment (FIGS. 6-b, 6-c and 6-d). Anti-FADD antibody was obtained from Santa Cruz Biotechnology and anti-Bid antibody was obtained from BD Pharmingen.
After the following treatment on the human pancreas cancer cell line MDAPanc-28, plasmatic compartment was prepared and Western blot was performed to examine the expression of phosphorylated FADD, caspase 8, NF-κB and IκBα. […] The same was true for IκBα expression (FIG. 7-c).

Murine fiber cells = assay: Effect on survival rate of normal cells; type: cell-based; settings: 80 μg/ml
Source text: Therefore, the present inventors next examined the effect of FUT treatment on normal cells. Murine fiber cells were used as normal cells.

IKK2 = target: T1, IKK2 (Homo sapiens, UniProt O14920); assay: IKK immunoprecipitation kinase assay and Western blot after FUT treatment of cells; type: cell-based
T1 construct: endogenous in cells; host or cells: MDAPanc-28 (human pancreas cancer cell line)
T1 sequence (O14920 whole entry): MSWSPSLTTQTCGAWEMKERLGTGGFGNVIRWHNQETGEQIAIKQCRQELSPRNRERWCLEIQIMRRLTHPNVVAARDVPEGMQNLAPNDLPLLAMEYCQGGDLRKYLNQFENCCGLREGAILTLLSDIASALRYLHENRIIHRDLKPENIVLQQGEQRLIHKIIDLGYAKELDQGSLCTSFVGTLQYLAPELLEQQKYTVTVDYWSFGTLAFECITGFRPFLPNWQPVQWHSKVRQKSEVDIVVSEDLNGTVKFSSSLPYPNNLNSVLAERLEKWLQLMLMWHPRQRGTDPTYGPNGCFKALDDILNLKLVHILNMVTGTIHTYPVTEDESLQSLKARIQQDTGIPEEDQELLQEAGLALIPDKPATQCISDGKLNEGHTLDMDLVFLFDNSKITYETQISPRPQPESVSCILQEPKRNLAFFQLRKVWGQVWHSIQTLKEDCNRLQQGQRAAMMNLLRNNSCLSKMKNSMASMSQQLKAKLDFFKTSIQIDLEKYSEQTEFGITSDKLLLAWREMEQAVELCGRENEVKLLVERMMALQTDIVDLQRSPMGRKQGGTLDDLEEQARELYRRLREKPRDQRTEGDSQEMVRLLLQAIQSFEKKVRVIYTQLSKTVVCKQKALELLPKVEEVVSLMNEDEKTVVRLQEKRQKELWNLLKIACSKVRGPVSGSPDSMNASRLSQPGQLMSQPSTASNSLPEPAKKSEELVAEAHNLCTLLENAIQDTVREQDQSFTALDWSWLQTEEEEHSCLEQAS
T1 sequence (O15111 whole entry partner): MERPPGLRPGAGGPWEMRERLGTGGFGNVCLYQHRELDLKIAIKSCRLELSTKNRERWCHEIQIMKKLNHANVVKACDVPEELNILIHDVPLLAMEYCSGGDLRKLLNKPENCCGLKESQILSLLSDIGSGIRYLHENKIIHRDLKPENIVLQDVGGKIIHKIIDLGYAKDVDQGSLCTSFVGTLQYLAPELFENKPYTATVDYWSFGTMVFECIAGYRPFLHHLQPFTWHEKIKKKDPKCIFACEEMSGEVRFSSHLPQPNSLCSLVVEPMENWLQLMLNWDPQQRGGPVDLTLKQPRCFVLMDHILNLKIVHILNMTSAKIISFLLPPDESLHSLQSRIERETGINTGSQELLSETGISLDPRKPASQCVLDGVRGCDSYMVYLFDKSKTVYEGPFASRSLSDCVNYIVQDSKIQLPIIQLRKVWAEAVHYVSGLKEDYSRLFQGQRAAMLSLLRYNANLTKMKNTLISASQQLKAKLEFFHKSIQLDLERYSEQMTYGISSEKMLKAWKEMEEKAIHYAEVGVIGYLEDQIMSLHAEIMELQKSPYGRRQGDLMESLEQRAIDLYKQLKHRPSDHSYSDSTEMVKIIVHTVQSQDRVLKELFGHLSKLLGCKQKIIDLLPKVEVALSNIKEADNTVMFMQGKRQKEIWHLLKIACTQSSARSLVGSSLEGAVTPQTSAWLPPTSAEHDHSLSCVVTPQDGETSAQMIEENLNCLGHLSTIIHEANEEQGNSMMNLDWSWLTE
T1 sequence (Q9Y6K9 whole entry partner): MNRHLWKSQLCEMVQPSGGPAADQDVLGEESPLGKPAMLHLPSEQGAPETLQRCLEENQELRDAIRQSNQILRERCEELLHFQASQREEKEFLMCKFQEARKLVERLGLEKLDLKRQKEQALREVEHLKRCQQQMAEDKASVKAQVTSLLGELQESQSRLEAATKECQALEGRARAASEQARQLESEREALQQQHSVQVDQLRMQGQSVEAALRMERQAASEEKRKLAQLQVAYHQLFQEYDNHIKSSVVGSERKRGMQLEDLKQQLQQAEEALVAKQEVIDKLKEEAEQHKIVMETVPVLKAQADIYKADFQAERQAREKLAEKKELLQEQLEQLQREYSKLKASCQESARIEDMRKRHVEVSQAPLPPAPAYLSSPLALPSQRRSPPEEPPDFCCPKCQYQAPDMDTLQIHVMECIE
Description: (§1) After FUT treatment, the human pancreas cancer cell line […]-28 was rinsed with ice-cold PBS to prepare 800 μg of cytoplasmic fraction. After adding glutathione sepharose beads (Amersham Pharmacia Biotech), the sample was invertedly mixed at 4° C. for 3 hours to remove non-specific absorption fractions. 4 μg of anti-IKK1/2 antibody (Santa Cruz Biotechnology) were added to the supernatant for reaction at 4° C. overnight. After adding glutathione sepharose beads, the sample was further mixed at 4° C. for 3 hours. The beads containing bound immunocomplex were rinsed twice with PBS and then subjected to immunoprecipitation and measurements of enzyme activity. To conduct the measurements of enzyme activity, the above mentioned beads were rinsed with kinase buffer (25 mM HEPES containing 150 mM NaCl, 25 mM beta-glycerophosphate and 10 mM MgCl2) to perform enzyme reaction. 5 uCi of ^32P-labeled y-ATP and 1 μg of the substrate GST-IκBα were reacted in the kinase buffer for 30 minutes at 37° C. The reaction was terminated by adding SDS sample buffer. The sample was analyzed by SDS-PAGE followed by autoradiography for detection.

IKK1 = target: T2, IKK1 (Homo sapiens, UniProt O15111); assay: as above; type: cell-based
T2 construct: endogenous in cells; host or cells: MDAPanc-28 (human pancreas cancer cell line)
T2 sequence (O15111 whole entry): as the sequence (O15111 whole entry partner) above
T2 sequence (O14920 whole entry partner): as the sequence (O14920 whole entry) above
T2 sequence (Q9Y6K9 whole entry partner): as the sequence (Q9Y6K9 whole entry partner) above
Description: as §1

MMP-9 = assay: Western blot of MMP-9 expression; type: cell-based, human; settings: MDAPanc-28 cytoplasmic fraction, 0 or 80 μg/ml FUT
Description: Cytoplasmic fraction was prepared from the human pancreas cancer cell line […]-28 treated with either 0 μg/ml or 80 μg/ml of FUT. Western blot was performed for the obtained cytoplasmic proteins to examine MMP-2 and MMP-9 expression. More specifically, the experiment was performed by the method described in Example 2. Rabbit polyclonal anti-MMP-2 antibody, goat polyclonal anti-MMP-9 antibody and mouse anti-B-actin antibody (Santa Cruz Biotechnology, Inc.) were used for detection.

[1] = tested on: human pancreas cancer cell line MDAPanc-28; assay: DNA fragmentation assay (apoptosis); type: cell-based; settings: MDAPanc-28
Description: After adding 1000 U/ml of protease K, the sample was further incubated for 5 hours at 50° C. After extracting DNA with phenol/chloroform/isoamyl alcohol, isopropanol and ammonium acetate were added to the collected water-soluble fractions in order to collect precipitates. The precipitates were then rinsed with 70% ethanol and dissolved in Tris-EDTA buffer. Electrophoresis was performed on a 2% agarose gel and DNA bands were confirmed by using ethidium bromide. The present inventors examined the concomitant effect of FUT and TNF-α on apoptosis in cancer cells. After treatment with TNF-α for 24 hours, the human pancreas cancer cell line […]-28 was further cultured for 24 hours with various concentrations of FUT being added. Cells prepared were then subjected to an MTT assay according to the method generally known to calculate the cell survival rates. Also, DNA was extracted to perform a DNA fragmentation assay. More specifically, with regard to the MTT assay, each well was seeded with 2000 cells per 100 μl of culture medium in a 96-well microtiterplate, followed by the above mentioned treatment. […] The absorbance of the samples was measured at 570 nm by using a microplate reader. […] Two independent experiments were performed, and the average was calculated. […]

NF-κB = assay: Gel shift assay of active NF-κB in nuclear extracts; type: cell-based, human
Description: The human pancreas cancer cell line MDAPanc-28 was treated with various concentrations of FUT to examine the effect on NF-κB activation. NF-κB is constantly activated in the MDAPanc-28 cell line. A gel shift assay with a κB probe was performed using the nuclear extracts from cells treated with various concentrations of FUT to detect NF-κB which was activated and translocated into the nucleus. More specifically, 10 μg of nuclear extracts were reacted with 1 μg of poly (dI-dC) (Pharmacia, Picataway, N.J.) in binding buffer (75 mM NaCl, 15 mM Tris-HCl, pH 7.5, 1.5 mM dithiothreitol, 25% glycerol and 20 mg/ml bovine serum albumin) for 30 minutes at 4° C. ^32P-labeled oligonucleotide probes (SEQ ID Nos: 1 to 4) were then added for reaction for 20 minutes at room temperature and electrophoresis was performed (4% polyacrylamide gel, 0.25×TBE; 22.5 mM Tris, 22.5 mM borate and 500 μM EDTA, pH 8.0). After drying at 80° C. for 1 hour, the gel was exposed to Kodak film (Eastman Kodak Co., Rochester, N.Y.) at −80° C. for detection. Oct-1 was used as a positive control.

[2] = MDAPanc-28 cytoplasmic fraction, before and after FUT treatment
[3] = immunoprecipitate from FUT-treated MDAPanc-28, substrate GST-IκBα

In the case of `N=C(N)c1ccc2cc(OC(=O)c3ccc(N=C(N)N)cc3)ccc2c1` [FUT, 6-amidino-2-naphthyl p-guanidinobenzoate dimethanesulfonate], the “caspase 8 activation with TNF-α stimulation” value (caspase 8; MDAPanc-28, FUT 80 μg/ml pretreatment then TNF-α 5 ng/ml 24 hours, compared to FUT alone) was “enhanced FADD phosphorylation and caspase 8 activation”, the “caspase 8 activation over time” value (caspase 8; MDAPanc-28, FUT 80 μg/ml, 0 to 24 hours) was “later on promoted caspase 8 activation” and the “caspase 8 activation” value (caspase 8; MDAPanc-28, various concentrations of FUT for 24 hours) was “activated by FUT in a concentration-dependent manner”. The “caspase 8 activation in TNFRI-downregulated cells” value (caspase 8; cells with TNFRI expression downregulated using siRNA, after FUT treatment) was “nor caspase 8 activation”, the “cell survival rate of normal cells” value (Murine fiber cells) was “had no effect on cell survival rate” and the “expression level of IKK2” value (IKK2; [2]) was “remain intact”. For the same compound, the “enzyme activity of IKK2” value (IKK2; [3]) was “reduces the enzyme activities of IKK1 and IKK2”, the “expression level of IKK1” value (IKK1; [2]) was “remain intact” and the “enzyme activity of IKK1” value (IKK1; [3]) was “reduces the enzyme activities of IKK1 and IKK2”. The MMP-9 expression (MMP-9) was “inhibited by FUT in a concentration-dependent manner”, the “concentration at which DNAs were fragmented (apoptosis induction)” value [1] was no less than 40 µg/mL and the “NF-κB activation over time” value (NF-κB; MDAPanc-28, time after addition of FUT up to 48 hours) was “inhibited overtime up to 24 hours after addition of FUT and then was restored to a steady-state level at 48 hours”. For the same compound, the NF-κB activation (NF-κB; MDAPanc-28, various concentrations of FUT) was “inhibited NF-κB activation in a concentration-dependent manner”.
